According to patent US20160031905A1, “Macrocyclic LRRK2 Kinase Inhibitors” (IPSEN PHARMA S.A.S., priority 2013, published 2016):
Counter-ions that a name gives are not always drawn.

Tests used:
[1] = target: T1, LRRK2 recombinant protein (Homo sapiens, UniProt Q5S007); assay: Radiometric protein kinase assay (33PanQinase Activity Assay), in vitro peptide-based kinase assay; assay type: biochemical; settings: protein kinase LRRK2 7.3 nM, ATP 0.3 μM, substrate GSK3(14-27), 30° C. for 60 minutes
T1 construct: purchased Invitrogen Corporation
T1 sequence (Q5S007 whole entry): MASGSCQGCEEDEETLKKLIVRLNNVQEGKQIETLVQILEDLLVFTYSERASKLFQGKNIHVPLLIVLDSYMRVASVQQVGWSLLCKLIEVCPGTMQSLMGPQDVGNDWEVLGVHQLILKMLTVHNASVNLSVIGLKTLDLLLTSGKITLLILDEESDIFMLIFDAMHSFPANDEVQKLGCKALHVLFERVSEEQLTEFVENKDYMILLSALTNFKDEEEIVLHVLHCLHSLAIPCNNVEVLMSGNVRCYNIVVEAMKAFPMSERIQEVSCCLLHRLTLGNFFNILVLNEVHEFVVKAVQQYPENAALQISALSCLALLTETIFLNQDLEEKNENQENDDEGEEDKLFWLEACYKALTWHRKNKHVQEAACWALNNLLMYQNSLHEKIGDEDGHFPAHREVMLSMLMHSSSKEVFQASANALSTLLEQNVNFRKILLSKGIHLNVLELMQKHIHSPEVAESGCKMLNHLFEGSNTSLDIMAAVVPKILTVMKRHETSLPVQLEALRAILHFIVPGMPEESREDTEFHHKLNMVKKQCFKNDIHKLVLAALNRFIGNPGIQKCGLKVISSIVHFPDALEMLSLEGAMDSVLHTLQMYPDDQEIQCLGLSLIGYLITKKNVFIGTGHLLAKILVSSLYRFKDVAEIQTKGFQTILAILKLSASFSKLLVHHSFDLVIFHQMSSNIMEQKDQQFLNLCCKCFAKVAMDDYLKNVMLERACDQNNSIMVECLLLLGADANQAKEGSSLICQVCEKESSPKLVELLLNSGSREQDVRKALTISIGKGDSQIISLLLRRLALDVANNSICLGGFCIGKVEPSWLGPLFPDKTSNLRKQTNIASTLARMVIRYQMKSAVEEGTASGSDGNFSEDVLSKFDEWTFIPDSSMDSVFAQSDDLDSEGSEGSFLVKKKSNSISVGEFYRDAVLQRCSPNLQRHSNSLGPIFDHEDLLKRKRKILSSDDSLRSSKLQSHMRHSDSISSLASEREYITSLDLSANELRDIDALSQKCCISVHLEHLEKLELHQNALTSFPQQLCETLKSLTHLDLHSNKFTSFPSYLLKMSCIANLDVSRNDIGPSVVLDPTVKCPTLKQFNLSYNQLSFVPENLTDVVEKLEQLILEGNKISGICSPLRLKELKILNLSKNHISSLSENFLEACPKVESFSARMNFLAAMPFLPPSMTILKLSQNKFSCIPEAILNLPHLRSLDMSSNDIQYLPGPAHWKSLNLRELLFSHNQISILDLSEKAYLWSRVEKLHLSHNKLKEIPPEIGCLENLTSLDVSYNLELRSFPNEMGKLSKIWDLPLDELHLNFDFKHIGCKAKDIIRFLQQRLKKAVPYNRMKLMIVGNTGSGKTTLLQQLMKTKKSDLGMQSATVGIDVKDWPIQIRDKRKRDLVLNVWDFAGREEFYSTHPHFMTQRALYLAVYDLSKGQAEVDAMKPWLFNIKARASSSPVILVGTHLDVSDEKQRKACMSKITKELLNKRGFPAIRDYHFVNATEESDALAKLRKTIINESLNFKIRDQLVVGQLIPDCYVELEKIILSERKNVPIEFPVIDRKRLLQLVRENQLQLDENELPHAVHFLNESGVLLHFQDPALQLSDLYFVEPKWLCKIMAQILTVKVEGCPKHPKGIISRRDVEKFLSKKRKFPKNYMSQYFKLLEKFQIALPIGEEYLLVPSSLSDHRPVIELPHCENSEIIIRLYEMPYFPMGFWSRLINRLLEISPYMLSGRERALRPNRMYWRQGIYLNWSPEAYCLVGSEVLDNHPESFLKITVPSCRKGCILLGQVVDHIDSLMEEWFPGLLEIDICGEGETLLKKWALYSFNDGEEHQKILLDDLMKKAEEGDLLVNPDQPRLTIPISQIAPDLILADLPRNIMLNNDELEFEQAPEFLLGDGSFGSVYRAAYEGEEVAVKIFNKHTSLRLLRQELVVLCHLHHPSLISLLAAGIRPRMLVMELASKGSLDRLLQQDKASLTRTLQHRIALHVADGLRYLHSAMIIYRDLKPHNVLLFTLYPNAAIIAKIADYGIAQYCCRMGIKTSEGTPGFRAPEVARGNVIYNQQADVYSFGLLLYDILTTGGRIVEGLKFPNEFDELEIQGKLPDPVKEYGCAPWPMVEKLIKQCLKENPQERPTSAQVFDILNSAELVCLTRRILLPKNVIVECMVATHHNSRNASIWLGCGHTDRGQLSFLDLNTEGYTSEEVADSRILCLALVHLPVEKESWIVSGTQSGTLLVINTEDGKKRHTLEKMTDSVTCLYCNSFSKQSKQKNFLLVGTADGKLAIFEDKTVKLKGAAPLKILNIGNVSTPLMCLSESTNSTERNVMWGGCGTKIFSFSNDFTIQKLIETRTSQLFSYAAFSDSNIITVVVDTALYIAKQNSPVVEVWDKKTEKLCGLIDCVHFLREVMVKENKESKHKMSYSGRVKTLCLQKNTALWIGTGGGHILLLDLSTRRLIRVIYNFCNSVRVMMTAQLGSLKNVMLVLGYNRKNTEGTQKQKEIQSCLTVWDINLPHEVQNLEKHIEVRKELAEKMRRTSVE
Protocol: The inhibition of LRRK2 kinase was assessed using LRRK2 recombinant protein in an in vitro peptide-based kinase assay.
A radiometric protein kinase assay (^33PanQinase® Activity Assay) is used for measuring the kinase activity. All assays are performed in 96-well FlashPlates™ from Perkin Elmer in a 50 μl reaction volume. The reaction cocktail is […] in 4 steps in the following order: • 10 μl of non-radioactive ATP solution (in H2O) • 25 μl of assay buffer/[γ-^33P]-ATP mixture • 5 μl of test sample in 10% DMSO • 10 μl of enzyme/substrate mixture
The assay for LRRK2 contains 70 mM HEPES-NaOH pH 7.5, 3 mM MgCl2, 3 mM MnCl2, 3 μM Na-orthovanadate, 1.2 mM DTT, 50 μg/ml PEG20000, ATP (0.3 μM), [γ-^33P]-ATP (approx. […] per well), protein kinase LRRK2 (7.3 nM) and substrate (GSK3(14-27), 1.0 μg/50 μl). The kinase is obtained from Invitrogen Corporation.
The reaction cocktails were incubated at 30° C. for 60 minutes. The reaction was stopped with 50 μl of 2% (v/v) H3PO4, plates were aspirated and washed two times with 200 μl 0.9% (w/v) NaCl. Incorporation of ^33Pi (counting of “cpm”) was determined with a microplate scintillation counter.
The compounds are dissolved to 10 mM in DMSO. Where needed, solutions are sonicated in a bath sonicator.

| IC50 [1] | melting point | SMILES |
| --- | --- | --- |
| 100 to 1000 nM | 296.8 °C | Cc1ccc2cc1-c1cnn3ccc(nc13)NCCCNCCO2 [Compound G42] |
| < 100 nM | 284.8 °C | CN1CCCNCCNc2ccc(F)c(c2)-c2cnn3ccc1nc23 [Compound G35] |
| < 100 nM | 242.3 °C | CN1CCCOc2ccc3ncc(n3n2)-c2cc(ccc2F)NCC1 [Compound G44] |
| < 100 nM | 286.4 °C | CN1CCNCCCOc2cccc(c2)-c2cnn3ccc1nc23 [Compound G22] |
| < 100 nM | 276.7 °C | c1cc2cc(c1)-c1cnn3ccc(nc13)OCCNCCCN2 [Compound G8] |
| < 100 nM | > 300 °C | c1cc2cc(c1)-c1cnn3ccc(nc13)NCCNCCCN2 [Compound D3] |
| < 100 nM | > 300 °C | c1cc2cc(c1)-c1cnn3ccc(nc13)NCCNCCN2 [Compound D1] |
| < 100 nM | – | CN1CCCNc2ccn3ncc(c3n2)-c2cc(ccc2F)OCC1 [Compound G18] |
| < 100 nM | 262.6 °C | N#CCN1CCCNc2ccc(F)c(c2)-c2cnn3ccc(nc23)NCC1 [Compound G47] |
| < 100 nM | 279.1 °C | Fc1ccc2cc1-c1cnn3ccc(nc13)OCCCNCCN2 [Compound G19] |
| < 100 nM | > 300 °C | Fc1ccc2cc1-c1cnn3ccc(nc13)NCCCCNCCO2 [Compound G40] |
| < 100 nM | > 300 °C | CC1CNCCCNc2ccn3ncc(c3n2)-c2cc(ccc2F)O1 (stereo not drawn) [Compound G28] |
| < 100 nM | 146.9 °C | c1cc2cc(c1)-c1cnn3ccc(nc13)NCCCCNCCCO2 [Compound D5] |
| < 100 nM | – | c1cc2cc(c1)-c1cnn3ccc(nc13)NCCCNCCCN2 [Compound G1] |
| < 100 nM | – | Fc1ccc2cc1-c1cnc3ccc(nn13)NCCCNCCO2 [Compound G15] |
| 100 to 1000 nM | > 300 °C | Clc1ccc2cc1-c1cnn3ccc(nc13)NCCNCCCO2 [Compound G30] |
| < 100 nM | 297.5 °C | CN1CCCNCCOc2cccc(c2)-c2cnn3ccc1nc23 [Compound G17] |
| < 100 nM | > 300 °C | CN1CCNCCOc2cccc(c2)-c2cnn3ccc1nc23 [Compound G2] |
| – | 280 °C | c1cc2cc(c1)-c1cnn3ccc(nc13)OCCCNCCN2 (as salt: HCl) [Compound G3] |

| IC50 [1] | melting point | SMILES |
| --- | --- | --- |
| < 100 nM | > 300 °C | c1cc2cc(c1)-c1cnc3ccc(nn13)NCCCNCCO2 [Compound G4] |
| < 100 nM | > 300 °C | CN1CCCNCCOc2ccc(F)c(c2)-c2cnc3ccc1nn23 [Compound G24] |
| – | 280 °C | c1cc2cc(c1)-c1cnn3ccc(nc13)NCCCNCCCN2 (as salt: HCl) [Compound G1] |
| – | > 300 °C | Fc1ccc2cc1-c1cnn3ccc(nc13)NCCNCCO2 (as salt: hydrochloride) [Compound C1] |
| < 100 nM | > 300 °C | c1cc2cc(c1)-c1cnn3ccc(nc13)NCCCCNCCO2 [Compound G14] |
| < 100 nM | > 300 °C | CC1CNCCCNc2ccn3ncc(c3n2)-c2cccc(c2)O1 (stereo not drawn) [Compound G23] |
| 100 to 1000 nM | 289.4 °C | CN1CCCNc2ccc(F)c(c2)-c2cnc3ccc(nn23)N(C)CC1 [Compound G48] |
| 100 to 1000 nM | 168.8 °C | CN1CCCOc2ccc(F)c(c2)-c2cnn3ccc(nc23)NCC1 [Compound G25] |
| < 100 nM | – | Fc1ccc2cc1-c1cnn3ccc(nc13)NCCCOCCN2 [Compound G49] |
| < 100 nM | > 300 °C | Fc1ccc2cc1-c1cnc3ccc(nn13)NCCNCCCN2 [Compound G37] |
| < 100 nM | > 300 °C | CN1CCNCCCOc2ccc(F)c(c2)-c2cnn3ccc1nc23 [Compound G26] |
| < 100 nM | > 300 °C | Fc1ccc2cc1-c1cnc3ccc(nn13)NCCCNCCN2 [Compound G43] |
| < 100 nM | > 300 °C | Fc1ccc2cc1OCCNCCNc1ccn3ncc-2c3n1 [Compound C2] |
| < 100 nM | 270.4 °C | Fc1ccc2cc1-c1cnn3ccc(nc13)NCCCCNCCN2 [Compound G46] |
| < 100 nM | 197.6 °C | Fc1ccc2cc1-c1cnn3ccc(nc13)NCCCNCCO2 [Compound G6] |
| < 100 nM | 289.1 °C | CN1CCCNc2ccc(F)c(c2)-c2cnc3ccc(nn23)NCC1 [Compound G45] |
| < 100 nM | > 300 °C | Clc1ccc2cc1-c1cnn3ccc(nc13)NCCCNCCO2 [Compound G27] |
| < 100 nM | – | CN1CCCNCCNc2ccc(F)c(c2)-c2cnc3ccc1nn23 [Compound G50] |
| < 100 nM | – | Fc1ccc2cc1-c1cnn3ccc(nc13)NCCNCCO2 [Compound C1] |

| IC50 [1] | melting point | SMILES |
| --- | --- | --- |
| < 100 nM | > 300 °C | Fc1ccc2cc1-c1cnn3ccc(nc13)NCCCNCCN2 [Compound G12] |
| < 100 nM | 263.8 °C | CN1CCNCCCNc2ccc(F)c(c2)-c2cnc3ccc1nn23 [Compound G41] |
| < 100 nM | > 300 °C | Fc1ccc2cc1-c1cnn3ccc(nc13)NCCNCCCN2 [Compound G21] |
| < 100 nM | 245.9 °C | CC1COc2cccc(c2)-c2cnn3ccc(nc23)NCCN1 (stereo not drawn) [Compound G11] |
| < 100 nM | – | c1cc2cc(c1)-c1cnn3ccc(nc13)OCCCNCCN2 [Compound G3] |
| – | > 300 °C | CN1CCCNc2ccn3ncc(c3n2)-c2cc(ccc2F)OCC1 (as salt: HCl) [Compound G18] |
| < 100 nM | – | CN1CCCNCCOc2ccc(F)c(c2)-c2cnn3ccc1nc23 [Compound G16] |
| < 100 nM | > 300 °C | c1cc2cc(c1)-c1cnn3ccc(nc13)NCCCNCCO2 [Compound A33] |
| < 100 nM | – | CC1COc2cccc(c2)-c2cnn3ccc(nc23)NCCCN1 (stereo not drawn) [Compound G31] |
| < 100 nM | > 300 °C | c1cc2cc(c1)-c1cnc3ccc(nn13)NCCNCCCO2 [Compound G32] |
| < 100 nM | > 300 °C | Fc1ccc2cc1-c1cnn3ccc(nc13)NCCNCCN2 [Compound G7] |
| < 100 nM | 296.8 °C | c1cc2cc(c1)-c1cnn3ccc(nc13)NCCCNCCN2 [Compound D4] |
| < 100 nM | > 300 °C | CN1CCNCCCOc2ccc(F)c(c2)-c2cnc3ccc1nn23 [Compound G34] |
| – | > 300 °C | CN1CCCNCCOc2ccc(F)c(c2)-c2cnn3ccc1nc23 (as salt: HCl) [Compound G16] |
| < 100 nM | 215 °C | CC1CNCCNc2ccn3ncc(c3n2)-c2cccc(c2)O1 (racemic) [Compound G5] |
| < 100 nM | > 300 °C | CN1CCNCCCNc2ccc(F)c(c2)-c2cnn3ccc1nc23 [Compound G39] |
| < 100 nM | – | CN1CCCNc2ccn3ncc(c3n2)-c2cccc(c2)OCC1 [Compound G20] |
| < 100 nM | > 300 °C | Fc1ccc2cc1-c1cnc3ccc(nn13)NCCNCCCO2 [Compound G33] |
| < 100 nM | > 300 °C | Fc1ccc2cc1-c1cnc3ccc(nn13)OCCCNCCN2 [Compound G36] |
